Measured values: ChEMBL document CHEMBL3124838, “Discovery of 6-aryl-azabenzimidazoles that inhibit the TBK1/IKK-ε kinases” (Bioorg Med Chem Lett, 2014)

Legend:
[1] = molecular target: Serine/threonine-protein kinase PAK 1 (Homo sapiens) (UniProt Q13153); assay: Inhibition of human PAK1 assessed as residual activity at 1 uM relative to control
[2] = molecular target: Casein kinase II subunit alpha' (Homo sapiens) (UniProt P19784); assay: Inhibition of human CK2-alpha2 assessed as residual activity at 1 uM relative to control
[3] = molecular target: T1, Myotonin-protein kinase (Homo sapiens) (UniProt Q09013); assay: Inhibition of human DMPK assessed as residual activity at 1 uM relative to control
T1 sequence (whole entry): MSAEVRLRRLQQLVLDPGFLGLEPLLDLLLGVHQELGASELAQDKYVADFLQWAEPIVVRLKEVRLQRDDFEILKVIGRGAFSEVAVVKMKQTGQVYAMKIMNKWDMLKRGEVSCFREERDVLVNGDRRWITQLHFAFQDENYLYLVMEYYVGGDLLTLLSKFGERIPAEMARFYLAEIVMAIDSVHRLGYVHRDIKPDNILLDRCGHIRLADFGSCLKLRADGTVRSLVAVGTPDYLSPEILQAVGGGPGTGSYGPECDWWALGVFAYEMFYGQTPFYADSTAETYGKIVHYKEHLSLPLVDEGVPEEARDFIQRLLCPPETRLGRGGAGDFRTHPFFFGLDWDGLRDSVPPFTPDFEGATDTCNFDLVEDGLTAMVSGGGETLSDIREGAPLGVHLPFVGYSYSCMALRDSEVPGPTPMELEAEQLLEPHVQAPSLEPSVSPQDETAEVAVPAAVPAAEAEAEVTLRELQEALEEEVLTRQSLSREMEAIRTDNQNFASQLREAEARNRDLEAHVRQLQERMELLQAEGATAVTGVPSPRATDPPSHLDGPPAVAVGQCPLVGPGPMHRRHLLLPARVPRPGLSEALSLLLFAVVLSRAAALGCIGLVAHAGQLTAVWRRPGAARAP

[4] = molecular target: Serine/threonine-protein kinase PAK 5 (Homo sapiens) (UniProt Q9P286); assay: Inhibition of human PAK5 assessed as residual activity at 1 uM relative to control
[5] = molecular target: Macrophage-stimulating protein receptor (Homo sapiens) (UniProt Q04912); assay: Inhibition of human RON assessed as residual activity at 1 uM relative to control
[6] = molecular target: Receptor-type tyrosine-protein kinase FLT3 (Homo sapiens) (UniProt P36888); assay: Inhibition of human FLT3 assessed as residual activity at 1 uM relative to control
[7] = molecular target: Insulin-like growth factor 1 receptor (Homo sapiens) (UniProt P08069); assay: Inhibition of human activated IGF-1R assessed as residual activity at 1 uM relative to control
[8] = molecular target: Insulin receptor (Homo sapiens) (UniProt P06213); assay: Inhibition of human activated IR assessed as residual activity at 1 uM relative to control
[9] = molecular target: Insulin receptor (Homo sapiens) (UniProt P06213); assay: Inhibition of human IR assessed as residual activity at 1 uM relative to control
[10] = molecular target: T2, MAP kinase-activated protein kinase 5 (Homo sapiens) (UniProt Q8IW41); assay: Inhibition of human PRAK assessed as residual activity at 1 uM relative to control
T2 sequence (whole entry): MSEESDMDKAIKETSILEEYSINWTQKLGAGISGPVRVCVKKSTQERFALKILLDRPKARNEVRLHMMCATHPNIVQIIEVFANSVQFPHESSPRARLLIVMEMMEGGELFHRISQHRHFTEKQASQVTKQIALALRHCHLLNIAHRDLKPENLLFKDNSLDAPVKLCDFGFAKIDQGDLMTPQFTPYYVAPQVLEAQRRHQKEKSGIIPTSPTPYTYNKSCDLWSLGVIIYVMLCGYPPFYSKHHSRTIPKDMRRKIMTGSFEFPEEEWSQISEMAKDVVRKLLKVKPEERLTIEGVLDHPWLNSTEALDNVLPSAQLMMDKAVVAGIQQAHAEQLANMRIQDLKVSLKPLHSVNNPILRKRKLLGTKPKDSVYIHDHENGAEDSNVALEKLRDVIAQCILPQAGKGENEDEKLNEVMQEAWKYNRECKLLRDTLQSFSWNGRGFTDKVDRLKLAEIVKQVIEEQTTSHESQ

[11] = molecular target: Tyrosine-protein kinase Lck (Homo sapiens) (UniProt P06239); assay: Inhibition of human LCK assessed as residual activity at 1 uM relative to control
[12] = test system: Proto-oncogene tyrosine-protein kinase receptor Ret (Homo sapiens), P07949 [V804L]; assay: Inhibition of human RET V804L mutant assessed as residual activity at 1 uM relative to control
[13] = molecular target: Serine/threonine-protein kinase PAK 2 (Homo sapiens) (UniProt Q13177); assay: Inhibition of human PAK2 assessed as residual activity at 1 uM relative to control
[14] = molecular target: Insulin-like growth factor 1 receptor (Homo sapiens) (UniProt P08069); assay: Inhibition of human IGF-1R assessed as residual activity at 1 uM relative to control
[15] = molecular target: T3, cGMP-dependent protein kinase 1 (Homo sapiens) (UniProt Q13976); assay: Inhibition of human PKG1alpha assessed as residual activity at 1 uM relative to control
T3 sequence (whole entry): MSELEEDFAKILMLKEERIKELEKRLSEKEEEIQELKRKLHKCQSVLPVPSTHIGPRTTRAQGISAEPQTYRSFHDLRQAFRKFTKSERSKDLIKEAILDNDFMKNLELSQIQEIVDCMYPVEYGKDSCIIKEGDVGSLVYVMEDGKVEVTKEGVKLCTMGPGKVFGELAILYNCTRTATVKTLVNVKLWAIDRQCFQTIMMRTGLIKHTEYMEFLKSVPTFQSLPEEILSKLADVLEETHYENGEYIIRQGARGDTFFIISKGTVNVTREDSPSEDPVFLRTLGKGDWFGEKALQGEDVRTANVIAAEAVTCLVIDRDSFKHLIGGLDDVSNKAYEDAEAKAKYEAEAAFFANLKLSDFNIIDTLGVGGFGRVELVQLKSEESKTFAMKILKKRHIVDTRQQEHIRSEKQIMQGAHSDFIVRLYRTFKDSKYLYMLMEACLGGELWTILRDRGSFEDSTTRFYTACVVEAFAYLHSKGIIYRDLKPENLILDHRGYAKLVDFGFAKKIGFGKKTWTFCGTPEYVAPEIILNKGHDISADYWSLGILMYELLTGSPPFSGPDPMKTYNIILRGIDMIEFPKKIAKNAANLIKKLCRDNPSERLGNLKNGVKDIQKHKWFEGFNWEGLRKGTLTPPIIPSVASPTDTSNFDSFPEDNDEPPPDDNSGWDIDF

[16] = molecular target: Fibroblast growth factor receptor 2 (Homo sapiens) (UniProt P21802); assay: Inhibition of human FGFR2 assessed as residual activity at 1 uM relative to control
[17] = molecular target: Rho-associated protein kinase 1 (Homo sapiens) (UniProt Q13464); assay: Inhibition of human ROCK-1 assessed as residual activity at 1 uM relative to control
Sequence of Rho-associated protein kinase 1 (Homo sapiens) (Q13464 2-1354 limits assumed): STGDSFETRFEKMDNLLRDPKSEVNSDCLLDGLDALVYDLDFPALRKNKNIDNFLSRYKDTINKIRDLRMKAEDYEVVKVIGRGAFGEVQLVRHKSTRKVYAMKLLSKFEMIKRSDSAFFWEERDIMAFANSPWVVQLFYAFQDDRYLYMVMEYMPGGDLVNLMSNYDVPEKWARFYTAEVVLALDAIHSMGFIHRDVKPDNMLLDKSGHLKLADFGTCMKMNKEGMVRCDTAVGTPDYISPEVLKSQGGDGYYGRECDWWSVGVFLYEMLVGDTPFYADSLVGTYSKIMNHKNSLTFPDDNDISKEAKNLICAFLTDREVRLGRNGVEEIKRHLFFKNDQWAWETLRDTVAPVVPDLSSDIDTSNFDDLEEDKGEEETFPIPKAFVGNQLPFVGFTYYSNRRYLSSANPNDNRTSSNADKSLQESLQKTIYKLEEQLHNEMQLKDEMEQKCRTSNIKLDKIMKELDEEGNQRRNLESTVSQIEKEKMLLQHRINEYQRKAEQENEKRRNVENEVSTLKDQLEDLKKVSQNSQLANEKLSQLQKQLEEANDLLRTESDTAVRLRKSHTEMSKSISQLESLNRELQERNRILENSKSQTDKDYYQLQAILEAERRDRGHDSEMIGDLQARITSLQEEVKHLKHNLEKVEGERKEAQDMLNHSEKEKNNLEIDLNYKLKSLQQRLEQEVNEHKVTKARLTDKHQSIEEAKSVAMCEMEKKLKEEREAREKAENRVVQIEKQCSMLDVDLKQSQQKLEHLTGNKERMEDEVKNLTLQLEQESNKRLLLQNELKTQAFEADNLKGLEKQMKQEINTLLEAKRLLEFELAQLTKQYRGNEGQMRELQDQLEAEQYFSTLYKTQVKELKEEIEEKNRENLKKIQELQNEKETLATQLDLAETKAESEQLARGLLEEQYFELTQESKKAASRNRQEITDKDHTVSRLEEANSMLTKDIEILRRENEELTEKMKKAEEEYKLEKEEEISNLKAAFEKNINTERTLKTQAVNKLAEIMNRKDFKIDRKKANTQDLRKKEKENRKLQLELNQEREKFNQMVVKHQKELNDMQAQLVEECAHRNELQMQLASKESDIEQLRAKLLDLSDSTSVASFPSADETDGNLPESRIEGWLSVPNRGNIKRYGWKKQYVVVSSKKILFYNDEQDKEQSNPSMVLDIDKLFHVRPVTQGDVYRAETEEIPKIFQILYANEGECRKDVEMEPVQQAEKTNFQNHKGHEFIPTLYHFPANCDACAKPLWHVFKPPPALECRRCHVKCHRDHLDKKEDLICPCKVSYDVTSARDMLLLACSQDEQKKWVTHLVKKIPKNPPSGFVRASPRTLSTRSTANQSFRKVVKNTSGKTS

Sequence of Tyrosine-protein kinase Lck (Homo sapiens) (P06239 2-509 limits assumed): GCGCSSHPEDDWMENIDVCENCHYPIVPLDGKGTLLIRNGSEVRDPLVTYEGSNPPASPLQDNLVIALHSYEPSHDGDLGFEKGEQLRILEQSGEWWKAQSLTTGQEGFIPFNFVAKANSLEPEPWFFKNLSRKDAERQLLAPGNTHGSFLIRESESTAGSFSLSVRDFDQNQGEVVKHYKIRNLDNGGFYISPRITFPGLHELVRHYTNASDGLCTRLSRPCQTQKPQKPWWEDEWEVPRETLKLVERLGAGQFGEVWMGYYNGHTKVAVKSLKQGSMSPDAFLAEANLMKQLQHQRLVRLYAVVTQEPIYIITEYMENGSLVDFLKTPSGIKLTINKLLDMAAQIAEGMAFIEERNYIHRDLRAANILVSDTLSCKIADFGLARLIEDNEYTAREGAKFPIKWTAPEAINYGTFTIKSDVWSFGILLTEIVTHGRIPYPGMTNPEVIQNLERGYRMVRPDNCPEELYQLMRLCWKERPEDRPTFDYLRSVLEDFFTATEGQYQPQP
Sequence of Casein kinase II subunit alpha' (Homo sapiens) (P19784 whole entry, looked up): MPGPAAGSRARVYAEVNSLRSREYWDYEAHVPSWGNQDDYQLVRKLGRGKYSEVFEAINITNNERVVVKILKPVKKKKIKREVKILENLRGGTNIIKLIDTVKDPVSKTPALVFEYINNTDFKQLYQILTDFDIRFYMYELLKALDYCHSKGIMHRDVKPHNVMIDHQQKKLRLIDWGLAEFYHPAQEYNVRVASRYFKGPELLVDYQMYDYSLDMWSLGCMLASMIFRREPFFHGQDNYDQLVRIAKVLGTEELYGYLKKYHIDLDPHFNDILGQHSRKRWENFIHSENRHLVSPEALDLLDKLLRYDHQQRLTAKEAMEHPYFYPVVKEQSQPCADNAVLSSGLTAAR
Sequence of Proto-oncogene tyrosine-protein kinase receptor Ret (Homo sapiens), P07949 [V804L] (P07949 whole entry V804L): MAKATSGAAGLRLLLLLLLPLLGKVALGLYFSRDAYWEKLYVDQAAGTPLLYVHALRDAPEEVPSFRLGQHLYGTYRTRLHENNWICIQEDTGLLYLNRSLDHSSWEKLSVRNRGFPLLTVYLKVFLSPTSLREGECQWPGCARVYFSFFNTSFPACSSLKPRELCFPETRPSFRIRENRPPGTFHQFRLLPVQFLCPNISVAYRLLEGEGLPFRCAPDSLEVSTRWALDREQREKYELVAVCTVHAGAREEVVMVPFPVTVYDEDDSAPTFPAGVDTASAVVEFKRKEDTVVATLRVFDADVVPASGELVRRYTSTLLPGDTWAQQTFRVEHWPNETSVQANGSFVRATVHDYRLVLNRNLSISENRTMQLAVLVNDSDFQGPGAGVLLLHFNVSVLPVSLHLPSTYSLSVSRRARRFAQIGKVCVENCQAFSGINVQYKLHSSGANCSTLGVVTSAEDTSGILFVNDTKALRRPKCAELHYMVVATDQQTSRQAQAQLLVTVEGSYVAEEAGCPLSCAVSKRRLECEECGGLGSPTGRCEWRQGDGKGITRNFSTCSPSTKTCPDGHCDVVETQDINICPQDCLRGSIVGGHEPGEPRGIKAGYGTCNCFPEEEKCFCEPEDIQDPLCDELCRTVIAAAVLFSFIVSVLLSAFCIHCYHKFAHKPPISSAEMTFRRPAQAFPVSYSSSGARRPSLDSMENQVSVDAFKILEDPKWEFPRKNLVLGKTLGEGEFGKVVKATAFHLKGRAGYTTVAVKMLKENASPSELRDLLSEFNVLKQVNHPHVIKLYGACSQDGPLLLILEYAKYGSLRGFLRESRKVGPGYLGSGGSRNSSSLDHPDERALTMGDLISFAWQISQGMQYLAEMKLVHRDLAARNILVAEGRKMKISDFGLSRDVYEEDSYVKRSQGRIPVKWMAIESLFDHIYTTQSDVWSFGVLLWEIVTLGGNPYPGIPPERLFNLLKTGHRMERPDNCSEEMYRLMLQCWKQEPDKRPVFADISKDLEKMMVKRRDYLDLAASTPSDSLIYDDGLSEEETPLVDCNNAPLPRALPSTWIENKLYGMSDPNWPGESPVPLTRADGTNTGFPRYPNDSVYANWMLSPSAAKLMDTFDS
Sequence of Fibroblast growth factor receptor 2 (Homo sapiens) (P21802 22-821 limits assumed): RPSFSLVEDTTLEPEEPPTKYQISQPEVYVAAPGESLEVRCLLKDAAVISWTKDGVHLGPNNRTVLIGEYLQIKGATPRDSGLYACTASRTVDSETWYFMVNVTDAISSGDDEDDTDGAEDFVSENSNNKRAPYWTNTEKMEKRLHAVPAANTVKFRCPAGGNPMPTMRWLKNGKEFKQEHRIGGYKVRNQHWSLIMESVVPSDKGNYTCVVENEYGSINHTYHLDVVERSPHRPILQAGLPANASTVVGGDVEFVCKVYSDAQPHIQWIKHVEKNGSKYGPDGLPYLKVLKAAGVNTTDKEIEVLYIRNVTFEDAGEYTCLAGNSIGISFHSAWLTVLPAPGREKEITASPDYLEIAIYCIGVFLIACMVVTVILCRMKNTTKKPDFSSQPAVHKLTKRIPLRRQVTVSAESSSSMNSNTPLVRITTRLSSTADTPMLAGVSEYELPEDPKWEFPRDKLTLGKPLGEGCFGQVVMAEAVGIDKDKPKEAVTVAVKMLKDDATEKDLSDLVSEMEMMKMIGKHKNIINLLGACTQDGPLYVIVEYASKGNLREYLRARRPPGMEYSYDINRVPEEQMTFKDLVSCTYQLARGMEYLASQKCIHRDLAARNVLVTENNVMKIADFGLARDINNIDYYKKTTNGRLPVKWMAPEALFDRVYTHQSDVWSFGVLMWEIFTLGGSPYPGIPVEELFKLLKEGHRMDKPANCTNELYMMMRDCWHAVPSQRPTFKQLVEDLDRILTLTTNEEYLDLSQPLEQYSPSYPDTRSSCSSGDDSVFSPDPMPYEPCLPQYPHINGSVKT
Sequence of Serine/threonine-protein kinase PAK 2 (Homo sapiens) (Q13177 whole entry): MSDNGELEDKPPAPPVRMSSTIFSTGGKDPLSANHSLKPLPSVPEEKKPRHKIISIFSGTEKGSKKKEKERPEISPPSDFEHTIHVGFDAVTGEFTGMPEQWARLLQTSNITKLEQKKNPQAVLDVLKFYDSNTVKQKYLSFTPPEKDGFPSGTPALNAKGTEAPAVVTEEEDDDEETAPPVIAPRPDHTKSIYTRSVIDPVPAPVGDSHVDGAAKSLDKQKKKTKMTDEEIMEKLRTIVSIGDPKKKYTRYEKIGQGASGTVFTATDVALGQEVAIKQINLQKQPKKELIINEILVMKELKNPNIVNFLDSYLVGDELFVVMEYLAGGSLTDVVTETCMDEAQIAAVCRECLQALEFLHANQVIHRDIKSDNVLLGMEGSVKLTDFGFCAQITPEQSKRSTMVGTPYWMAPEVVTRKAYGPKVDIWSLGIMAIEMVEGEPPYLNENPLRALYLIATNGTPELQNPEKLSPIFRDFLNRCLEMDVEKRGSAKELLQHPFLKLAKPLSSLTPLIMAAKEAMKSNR

Compound	Activity [1]	Activity [2]	Activity [3]	Activity [4]	Activity [5]	Activity [6]	Activity [7]	Activity [8]	Activity [9]	Activity [10]	Activity [11]	Activity [12]	Activity [13]	Activity [14]	Activity [15]	Activity [16]	Activity [17]
COc1ccc(-c2nc3cc(-c4csc(C(=O)NCC(C)(C)C)c4)cnc3[nH]2)cc1	94%	74%	104%	94%	122%	30%	80%	96%	92%	115%	64%	13%	92%	98%	68%	100%	104%
COc1ccc(-c2nc3cc(-c4csc(C(=O)NCCC(C)C)c4)cnc3[nH]2)cc1	96%	59%	100%	86%	132%	18%	91%	100%	80%	102%	31%	5%	94%	105%	67%	90%	98%
COc1ccc(-c2nc3cc(-c4csc(C(=O)NCC(C)C)c4)cnc3[nH]2)cc1	105%	91%	97%	97%	128%	6%	95%	109%	102%	112%	44%	8%	90%	108%	69%	88%	113%
